# According to US20080262097A1, “Formulations” (priority 2005, published 2008):
# Like-named read-outs stand apart in the source and are kept apart here.
# How the values were obtained:
# P. acnes NCTC 737 [1] = test: MIC assay; type: cell-based, Propionibacterium acnes
# Procedure: 2. Propionibacterium spp.—the principal propionibacterial strain used in these studies was Propionibacterium acnes NCTC 737. This is the type strain of the genus; it is fully susceptible to antibiotics.
# (§1) The Propionibacterium spp organisms were cultured and maintained on Wilkins-Chalgren Anaerobe Medium (agar and broth) at pH 6.0; cultures were incubated anaerobically at 37° C. for 72 hours.
# This is a standard international method for quantitatively assessing the antimicrobial activity of a compound in a liquid medium. The method used a 96-well microtitre plate, capable of holding about 200 μl of liquid per well. […] The culture media were as described above for the relevant test organisms.
# The wells were inoculated with a liquid suspension of freshly grown micro-organism and incubated under the conditions described above. After incubation, the microtitre plate was examined visually (with the aid of a light box) for cell pellets in and/or opaque wells, which would indicate microbial growth. The MIC value was recorded as the lowest concentration of test compound required to inhibit microbial growth, ie, the lowest concentration for which the liquid in the well remained clear.
# The assays were conducted in duplicate and included both negative (culture medium only) and positive (culture medium, diluting solvent and inoculum) controls.
# S. aureus ATCC 29213 [2] = test: Disc diffusion assay (DDA); type: cell-based, Staphylococcus aureus
# Source text: 1. Staphylococcus aureus—the principal staphylococcal test micro-organism used in these studies was Staphylococcus aureus ATCC 29213. This strain is the one recommended for QC/QA purposes in Minimum Inhibitory Concentration (MIC) assays by the US Clinical and Laboratory Standards Institute (formerly the NCCLS), an FDA-recognised body. S. aureus ATCC 29213 is susceptible to beta-lactam antibiotics such as methicillin and to many other antibiotics in clinical use worldwide today. The staphylococci and enterococci were cultured and maintained on Mueller-Hinton Medium (agar and broth) at pH 7.2; they were incubated aerobically at 37° C. for 24 hours. A sterile paper disc was impregnated with a sample of the test compound and a minimum of 30 minutes allowed for the solvents to evaporate as far as possible. The disc was then placed on an agar plate onto which the test micro-organism had been inoculated. The plate was then incubated under the conditions described above, following which it was examined visually for signs of bacterial growth. If the test compound had antimicrobial activity, a circular zone of no growth would be obtained around the disc. The diameter of this zone of “inhibition” was measured using a ProtoCOL™ automated zone sizer (Synbiosis, Cambridge, UK). In general, a greater diameter and/or area of the zone of inhibition indicates a greater antimicrobial activity in the relevant test compound, although other factors such as test compound mobility through the agar gel may also influence the result. […] The exceptions were the thymoquinone assays, in which only 50 μg of the benzoquinone was used.
# P. acnes NCTC 737 [3] = test: Disc diffusion assay (DDA); type: cell-based, Propionibacterium acnes; details: 200 μg per disc
# Procedure: 2. Propionibacterium spp.—the principal propionibacterial strain used in these studies was Propionibacterium acnes NCTC 737.
# as §1
# A sterile paper disc was impregnated with a sample of the test compound and a minimum of 30 minutes allowed for the solvents to evaporate as far as possible. The disc was then placed on an agar plate onto which the test micro-organism had been inoculated. The plate was then incubated under the conditions described above, following which it was examined visually for signs of bacterial growth. […] The diameter of this zone of “inhibition” was measured using a ProtoCOL™ automated zone sizer (Synbiosis, Cambridge, UK).
# The area of the zone of inhibition was calculated from the measured zone diameter (D) using the formula π(D/2)^2.
# For all (S)DDA assays, 200 μg of each compound was loaded onto each disc.
# S. aureus ATCC 29213 [4] = test: Supplemented disc diffusion assay (DDA + salt, lipid or blood); type: cell-based, Staphylococcus aureus; details: 200 μg per disc (thymoquinone 50 μg); for DDA + blood: agar supplemented with blood; for DDA + lipid: agar supplemented with lipid; for DDA + salt: agar supplemented with salt
# Procedure: The staphylococci and enterococci were cultured and maintained on Mueller-Hinton Medium (agar and broth) at pH 7.2; they were incubated aerobically at 37° C. for 24 hours. A sterile paper disc was impregnated with a sample of the test compound and a minimum of 30 minutes allowed for the solvents to evaporate as far as possible. The disc was then placed on an agar plate onto which the test micro-organism had been inoculated. The plate was then incubated under the conditions described above, following which it was examined visually for signs of bacterial growth. If the test compound had antimicrobial activity, a circular zone of no growth would be obtained around the disc. The diameter of this zone of “inhibition” was measured using a ProtoCOL™ automated zone sizer (Synbiosis, Cambridge, UK). In general, a greater diameter and/or area of the zone of inhibition indicates a greater antimicrobial activity in the relevant test compound, although other factors such as test compound mobility through the agar gel may also influence the result. Either the DDA or the SDDA tests may be carried out using an agar gel supplemented with blood, lipid and/or salt to simulate some of the major components present in human skin and to assess whether these substances might reduce the antimicrobial activity observed for the test compounds. Performance under these conditions can provide a more reliable indication of activity on topical application. […] MIC, MBC and DDA assays, as described above, were carried out using the test compound benzoyl peroxide (BP) and a range of different benzoquinones and hydroquinones. Supplemented DDA assays, in the presence of salt, lipid and blood, were also conducted. […] The exceptions were the thymoquinone assays, in which only 50 μg of the benzoquinone was used.
# P. acnes NCTC 737 [5] = test: Supplemented disc diffusion assay (DDA + salt or lipid); type: cell-based, Propionibacterium acnes; details: 200 μg per disc; for DDA + lipid: agar supplemented with lipid; for DDA + salt: agar supplemented with salt
# Procedure: The Propionibacterium spp organisms were cultured and maintained on Wilkins-Chalgren Anaerobe Medium (agar and broth) at pH 6.0; cultures were incubated anaerobically at 37° C. for 72 hours. A sterile paper disc was impregnated with a sample of the test compound and a minimum of 30 minutes allowed for the solvents to evaporate as far as possible. The disc was then placed on an agar plate onto which the test micro-organism had been inoculated. The plate was then incubated under the conditions described above, following which it was examined visually for signs of bacterial growth. If the test compound had antimicrobial activity, a circular zone of no growth would be obtained around the disc. The diameter of this zone of “inhibition” was measured using a ProtoCOL™ automated zone sizer (Synbiosis, Cambridge, UK). In general, a greater diameter and/or area of the zone of inhibition indicates a greater antimicrobial activity in the relevant test compound, although other factors such as test compound mobility through the agar gel may also influence the result. Either the DDA or the SDDA tests may be carried out using an agar gel supplemented with blood, lipid and/or salt to simulate some of the major components present in human skin and to assess whether these substances might reduce the antimicrobial activity observed for the test compounds. Performance under these conditions can provide a more reliable indication of activity on topical application. […] MIC, MBC and DDA assays, as described above, were carried out using BP and a range of different benzoquinones and hydroquinones. Supplemented DDA assays, in the presence of salt and lipid, were also conducted.
# [6] = Cutibacterium acnes, NCTC737, P. acnes NCTC 737 (resistance None), Table 9 (Example 8)
# [7] = Cutibacterium acnes, NCTC737, P. acnes NCTC 737, Table 7 (Example 6)
# [8] = Table 1, zone diameter, 200 μg per disc (thymoquinone 50 μg)
# [9] = Table 6 (Example 5), zone diameter, 200 μg per disc
# [10] = Table 10 (Example 8), zone diameter
# [11] = P. acnes NCTC 737, Table 7 (Example 6)
# [12] = Cutibacterium acnes, NCTC737, P. acnes NCTC 737, Table 7 (Example 6), read-out: MIC
SMILES,MIC (P. acnes NCTC 737 [1]; [6]) [µg/mL],MIC (P. acnes NCTC 737 [1]; [7]) [µg/mL],DDA (S. aureus ATCC 29213 [2]; [8]) [mm],DDA (S. aureus ATCC 29213 [2]; [9]) [mm],"DDA (P. acnes NCTC 737 [3]; Table 7, zone diameter) [mm]",DDA (P. acnes NCTC 737 [3]; [10]),DDA + blood (S. aureus ATCC 29213 [4]) [mm],DDA + lipid (S. aureus ATCC 29213 [4]) [mm],DDA + salt (S. aureus ATCC 29213 [4]) [mm],MIC (P. acnes NCTC 737 [1]; [11]) [µg/mL],DDA + lipid (P. acnes NCTC 737 [5]) [mm],DDA + salt (P. acnes NCTC 737 [5]) [mm],"DDA (P. acnes NCTC 737 [3]; Table 11 (Example 9), mean of three replicates) [mm]",MIC (P. acnes NCTC 737 [1]; [12]) [µg/mL]
O=C(OOC(=O)c1ccccc1)c1ccccc1 [benzoyl peroxide],15.6,31.2,11.03,9.61,24.25,19.25 (±0.18) mm,–,–,–,–,–,–,–,–
Oc1ccc(O)cc1 [p-hydroquinone],–,–,18.94,–,0.0,–,14.01,15.56,16.61,>250,0.0,0.0,–,–
"Cc1c(O)ccc(O)c1C [2,3-dimethyl-p-hydroquinone]",–,–,33.41,–,18.75,–,14.32,35.80,34.24,7.8,13.75,14.38,–,–
"CC(C)(C)c1cc(O)ccc1O [TBHQ, t-butyl hydroquinone]",7.8,7.8,41.77,46.79,9.95,8.65 (±0.31) mm,10.89,31.44,54.16,–,10.37,19.48,15.0,–
O=C1C=CC(=O)C=C1 [p-benzoquinone],–,–,29.34,–,24.87,–,20.31,29.05,27.49,–,37.98,31.44,–,62.5
CCc1cc(O)ccc1O [2-ethyl-p-hydroquinone],–,–,21.06,–,9.90,–,17.74,23.04,24.59,7.8,0.0,9.38,–,–
"CC1=CC(=O)C(C(C)C)=CC1=O [thymoquinone, 2-iso-propyl-5-methyl-p-benzoquinone]",–,–,15.64,–,27.46,–,0.0,18.99,20.54,–,49.01,46.49,–,15.6
